Target: T1, NikA (Escherichia coli, UniProt P33590)
T1 construct: wild type NikA, purified from periplasm (56 304 Da)
Experiment: isothermal titration calorimetry, one-site model
Assay type: binding

T1 sequence (P33590 23-524): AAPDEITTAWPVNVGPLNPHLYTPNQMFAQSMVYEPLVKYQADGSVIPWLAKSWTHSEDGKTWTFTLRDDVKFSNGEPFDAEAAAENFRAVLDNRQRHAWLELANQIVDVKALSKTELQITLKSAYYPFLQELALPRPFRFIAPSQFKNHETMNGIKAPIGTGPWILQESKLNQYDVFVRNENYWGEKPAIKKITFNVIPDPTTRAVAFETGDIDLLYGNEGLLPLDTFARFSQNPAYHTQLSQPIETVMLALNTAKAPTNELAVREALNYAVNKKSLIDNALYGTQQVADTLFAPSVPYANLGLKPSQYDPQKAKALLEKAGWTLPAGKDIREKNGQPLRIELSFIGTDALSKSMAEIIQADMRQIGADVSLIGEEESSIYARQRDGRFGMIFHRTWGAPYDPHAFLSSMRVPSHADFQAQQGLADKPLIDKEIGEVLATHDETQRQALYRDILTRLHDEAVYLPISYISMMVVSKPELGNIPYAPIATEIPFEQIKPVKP

SMILES	Kd [µM]
O=C([O-])CN(CCN(CC(=O)[O-])CC(=O)O)CC(=O)[O-].[Fe+3] [Fe(III)-EDTA]	7.4 ± 0.7
O=C([O-])CN(CCN(CC(=O)[O-])CC(=O)O)CC(=O)[O-].[In+3] [In(III)-EDTA]	17.3 ± 3
